What all share (assay type): cell-based
Assay [1] has as its target T1, human TLR7 (Homo sapiens, UniProt Q9NYK1).
T1 construct: host or cells: HEK-Blue cells
T1 sequence (Q9NYK1 27-1049): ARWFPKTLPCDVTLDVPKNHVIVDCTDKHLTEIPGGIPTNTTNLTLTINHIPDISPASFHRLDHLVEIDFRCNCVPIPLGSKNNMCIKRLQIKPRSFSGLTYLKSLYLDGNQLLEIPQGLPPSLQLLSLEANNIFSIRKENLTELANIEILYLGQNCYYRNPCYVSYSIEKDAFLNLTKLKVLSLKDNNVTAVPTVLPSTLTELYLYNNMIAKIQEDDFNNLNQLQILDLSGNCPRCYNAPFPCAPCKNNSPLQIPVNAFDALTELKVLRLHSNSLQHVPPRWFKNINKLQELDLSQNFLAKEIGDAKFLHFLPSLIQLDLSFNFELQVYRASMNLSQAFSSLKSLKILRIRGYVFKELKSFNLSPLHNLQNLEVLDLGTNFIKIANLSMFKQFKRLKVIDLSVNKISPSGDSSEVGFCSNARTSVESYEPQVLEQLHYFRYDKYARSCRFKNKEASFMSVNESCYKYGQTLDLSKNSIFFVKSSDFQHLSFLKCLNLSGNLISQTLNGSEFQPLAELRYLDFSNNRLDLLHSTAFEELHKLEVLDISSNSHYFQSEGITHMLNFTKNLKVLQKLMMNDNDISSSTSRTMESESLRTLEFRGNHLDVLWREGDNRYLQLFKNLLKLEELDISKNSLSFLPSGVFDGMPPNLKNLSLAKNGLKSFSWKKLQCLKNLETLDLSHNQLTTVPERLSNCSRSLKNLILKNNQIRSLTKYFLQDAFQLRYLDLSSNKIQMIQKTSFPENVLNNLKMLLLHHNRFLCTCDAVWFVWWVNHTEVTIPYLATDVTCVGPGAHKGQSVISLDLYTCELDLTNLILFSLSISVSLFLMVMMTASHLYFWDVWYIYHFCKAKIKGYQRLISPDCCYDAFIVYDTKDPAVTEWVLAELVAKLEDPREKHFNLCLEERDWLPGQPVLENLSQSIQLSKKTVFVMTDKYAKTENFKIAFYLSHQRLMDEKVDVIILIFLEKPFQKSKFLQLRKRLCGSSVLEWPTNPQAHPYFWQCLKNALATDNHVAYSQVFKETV
The experiment in a line: TLR7 inhibition reporter assay (HEK-Blue cells, SEAP reporter, gardiquimod stimulation). The settings on record: HEK-Blue cells overexpressing human TLR7, SEAP reporter, gardiquimod 7.5 μM; read-out: TLR7 IC50. An outline of the steps:
(§1)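 HEK-Blue cells overexpressing human TLR7, TLR8 or TLR9 carry a SEAP reporter driven by NF-κB/AP-1 sites. Compounds (0.05 nM–50 μM) were preincubated 30 min at room temperature, then cells were stimulated with gardiquimod 7.5 μM (TLR7), R848 15.9 μM (TLR8) or ODN2006 5 nM (TLR9) for 22 h at 37 °C.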
In general terms: In a reporter assay the amount or activity of a reporter protein is the signal.

The target of assay [2] is T2, human TLR8 (Homo sapiens, UniProt Q9NR97).
T2 construct: host or cells: HEK-Blue cells
T2 sequence (Q9NR97 27-1041): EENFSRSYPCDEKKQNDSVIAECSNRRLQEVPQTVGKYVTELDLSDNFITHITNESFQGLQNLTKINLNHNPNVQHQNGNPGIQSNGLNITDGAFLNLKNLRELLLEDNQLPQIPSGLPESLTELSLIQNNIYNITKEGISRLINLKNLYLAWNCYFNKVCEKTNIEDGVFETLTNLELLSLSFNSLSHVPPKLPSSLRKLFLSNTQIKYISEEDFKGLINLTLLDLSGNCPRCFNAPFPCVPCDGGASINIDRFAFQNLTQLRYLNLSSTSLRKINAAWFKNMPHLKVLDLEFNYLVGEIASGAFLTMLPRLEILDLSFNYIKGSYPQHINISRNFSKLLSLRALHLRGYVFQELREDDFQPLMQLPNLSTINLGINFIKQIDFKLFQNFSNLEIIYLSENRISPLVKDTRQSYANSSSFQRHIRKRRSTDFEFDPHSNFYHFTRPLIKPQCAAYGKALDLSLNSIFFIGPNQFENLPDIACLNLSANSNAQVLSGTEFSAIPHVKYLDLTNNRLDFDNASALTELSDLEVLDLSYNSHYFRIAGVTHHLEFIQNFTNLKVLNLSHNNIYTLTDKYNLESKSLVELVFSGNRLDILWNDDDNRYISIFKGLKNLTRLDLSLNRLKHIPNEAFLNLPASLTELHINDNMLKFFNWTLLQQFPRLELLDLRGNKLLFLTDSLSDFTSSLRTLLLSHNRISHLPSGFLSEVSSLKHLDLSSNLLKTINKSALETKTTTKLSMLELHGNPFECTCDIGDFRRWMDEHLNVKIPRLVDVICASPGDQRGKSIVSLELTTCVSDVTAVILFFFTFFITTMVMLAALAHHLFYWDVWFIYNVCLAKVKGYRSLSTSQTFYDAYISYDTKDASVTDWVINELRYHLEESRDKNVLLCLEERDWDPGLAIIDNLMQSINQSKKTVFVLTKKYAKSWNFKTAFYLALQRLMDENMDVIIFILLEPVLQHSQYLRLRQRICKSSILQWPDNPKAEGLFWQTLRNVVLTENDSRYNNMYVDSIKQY
The experiment in a line: TLR8 inhibition reporter assay (HEK-Blue cells, SEAP reporter, R848 stimulation). The settings on record: HEK-Blue cells overexpressing human TLR8, SEAP reporter, R848 15.9 μM; read-out: TLR8 IC50. The procedure, abridged:
as §1

The target of assay [3] is T3, human TLR9 (Homo sapiens, UniProt Q9NR96).
T3 construct: host or cells: HEK-Blue cells
T3 sequence (Q9NR96 26-1032): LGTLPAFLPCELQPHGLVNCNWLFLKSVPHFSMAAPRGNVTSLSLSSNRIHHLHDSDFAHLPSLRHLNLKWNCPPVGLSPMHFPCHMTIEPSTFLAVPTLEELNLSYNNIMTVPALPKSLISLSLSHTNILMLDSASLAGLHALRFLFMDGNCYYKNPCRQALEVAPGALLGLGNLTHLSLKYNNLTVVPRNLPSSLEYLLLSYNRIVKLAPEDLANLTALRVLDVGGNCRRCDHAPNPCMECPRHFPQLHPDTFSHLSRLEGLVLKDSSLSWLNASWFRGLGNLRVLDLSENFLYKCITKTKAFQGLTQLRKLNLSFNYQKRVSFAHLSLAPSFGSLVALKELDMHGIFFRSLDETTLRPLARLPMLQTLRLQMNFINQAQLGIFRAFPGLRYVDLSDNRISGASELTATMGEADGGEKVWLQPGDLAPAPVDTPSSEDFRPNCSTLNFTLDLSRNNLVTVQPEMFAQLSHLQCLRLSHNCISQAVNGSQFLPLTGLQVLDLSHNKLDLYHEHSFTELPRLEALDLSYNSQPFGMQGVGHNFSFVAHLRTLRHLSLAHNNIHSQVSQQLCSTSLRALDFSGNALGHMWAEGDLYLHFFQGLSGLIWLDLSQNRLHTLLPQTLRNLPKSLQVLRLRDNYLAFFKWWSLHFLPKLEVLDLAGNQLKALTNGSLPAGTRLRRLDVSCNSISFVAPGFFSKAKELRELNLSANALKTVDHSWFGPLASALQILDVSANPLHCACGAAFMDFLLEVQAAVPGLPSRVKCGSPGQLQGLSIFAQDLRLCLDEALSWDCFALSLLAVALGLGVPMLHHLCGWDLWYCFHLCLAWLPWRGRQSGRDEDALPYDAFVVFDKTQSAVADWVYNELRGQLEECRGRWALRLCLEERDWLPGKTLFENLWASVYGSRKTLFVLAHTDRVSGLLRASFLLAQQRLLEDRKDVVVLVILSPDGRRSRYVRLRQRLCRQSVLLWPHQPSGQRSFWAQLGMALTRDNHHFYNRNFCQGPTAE
Kind of assay: TLR9 inhibition reporter assay (HEK-Blue cells, SEAP reporter, ODN2006 stimulation). The settings on record: HEK-Blue cells overexpressing human TLR9, SEAP reporter, ODN2006 5 nM. The procedure, abridged:
as §1

Regarding `Cc1cc(-c2[nH]c3nc(C4CCN(CC5(C)COC5)CC4)sc3c2C(C)C)cn2ncnc12` [Example 412, 6-isopropyl-5-(8-methyl-[1,2,4]triazolo[1,5-a]pyridin-6-yl)-2-(1-((3-methyloxetan-3-yl)methyl)piperidin-4-yl)-4H-pyrrolo[2,3-d]thiazole], the IC50 in assay [1] came to 50 nM; in assay [2] it was 520 nM; in assay [3], 5000 nM.

For the compound `Cc1cc(-c2[nH]c3sc(C4CCC(NCC5(C)COC5)CC4)nc3c2C(C)C)cn2ncnc12` (single isomer, unassigned) [Example 135, 4-(6-isopropyl-5-(8-methyl-[1,2,4]triazolo[1,5-a]pyridin-6-yl)-4H-pyrrolo[3,2-d]thiazol-2-yl)-N-((3-methyloxetan-3-yl)methyl)cyclohexan-1-amine], the IC50 worked out at 6.8 nM in assay [1], 38.9 nM in assay [2] and 22400 nM in assay [3].

As to `Cc1c(-c2[nH]c3sc(N4CCNC[C@@H]4C)nc3c2C(C)C)cn2ncnc2c1C` [Example 310, (S)-5-(7,8-dimethyl-[1,2,4]triazolo[1,5-a]pyridin-6-yl)-6-isopropyl-2-(2-methylpiperazin-1-yl)-4H-pyrrolo[3,2-d]thiazole], the 50% inhibitory concentration (IC50) in assay [1] was found to be 1.45 nM; in assay [2], 0.43 nM; in assay [3] it was 19300 nM.

Take `COc1cc(-c2[nH]c3sc(C4CCC(N5CC6(C5)CS(=O)(=O)C6)CC4)nc3c2C(C)C)cn2ncnc12` (single isomer, unassigned) [Example 96, 6-(4-(6-isopropyl-5-(8-methoxy-[1,2,4]triazolo[1,5-a]pyridin-6-yl)-4H-pyrrolo[3,2-d]thiazol-2-yl)cyclohexyl)-2-thia-6-azaspiro[3.3]heptane 2,2-dioxide]: the IC50 in assay [1] was 1.53 nM; in assay [2], 0.98 nM; in assay [3] it was 7770 nM.

As for `Cc1c(-c2[nH]c3sc(C4CCN(CC5CCOCC5)CC4)nc3c2C(C)C)cn2ncnc2c1C` [Example 48, 5-(7,8-dimethyl-[1,2,4]triazolo[1,5-a]pyridin-6-yl)-6-isopropyl-2-(1-((tetrahydro-2H-pyran-4-yl)methyl)piperidin-4-yl)-4H-pyrrolo[3,2-d]thiazole], the IC50 in assay [1] amounted to 6.02 nM; in assay [2] it was 4.32 nM; in assay [3], 19500 nM.

Consider `Cc1c(-c2[nH]c3sc(C4CCC(N5CC6(COC6)C5)CC4)nc3c2C(C)C)cn(C)c(=O)c1C` (single isomer, unassigned) [Example 245, 5-(2-(4-(2-oxa-6-azaspiro[3.3]heptan-6-yl)cyclohexyl)-6-isopropyl-4H-pyrrolo[3,2-d]thiazol-5-yl)-1,3,4-trimethylpyridin-2(1H)-one], for which the figures for the IC50 in assay [1], in assay [2] and in assay [3] were 2.6 nM, 0.65 nM and 22900 nM, respectively.

Consider `CNCCNC1CCC(c2nc3c(C(C)C)c(-c4cc(OC)c5ncnn5c4)[nH]c3s2)CC1` (single isomer, unassigned) [Example 171, N1-(4-(6-isopropyl-5-(8-methoxy-[1,2,4]triazolo[1,5-a]pyridin-6-yl)-4H-pyrrolo[3,2-d]thiazol-2-yl)cyclohexyl)-N2-methylethane-1,2-diamine], for which the IC50 was found to be 0.78 nM in assay [1], 2.21 nM in assay [2] and 879 nM in assay [3].

For the compound `COc1cc(-c2[nH]c3sc(C4CCC(N(C)C5COC5)CC4)nc3c2C(C)C)cn2ncnc12` (single isomer, unassigned) [Example 125, N-(4-(6-isopropyl-5-(8-methoxy-[1,2,4]triazolo[1,5-a]pyridin-6-yl)-4H-pyrrolo[3,2-d]thiazol-2-yl)cyclohexyl)-N-methyloxetan-3-amine], the IC50 stood at 5.8 nM in assay [1], 25.9 nM in assay [2] and 5400 nM in assay [3].

For the compound `CC(C)c1c(-c2cn(C)c3ncccc23)[nH]c2sc(C3CCC(NC45CC(C4)C5)CC3)nc12` (single isomer, unassigned) [Example 176, N-(4-(6-isopropyl-5-(1-methyl-1H-pyrrolo[2,3-b]pyridin-3-yl)-4H-pyrrolo[3,2-d]thiazol-2-yl)cyclohexyl)bicyclo[1.1.1]pentan-1-amine], the results for the IC50 in assay [1], in assay [2] and in assay [3] were 23.3 nM, 23.7 nM and 9580 nM, respectively.

On to `CCN1C[C@H](C)N(c2nc3c(C(C)C)c(-c4cn5ncnc5c(C)c4C)[nH]c3s2)C[C@H]1C` [Example 331, 5-(7,8-dimethyl-[1,2,4]triazolo[1,5-a]pyridin-6-yl)-2-((2S,5R)-4-ethyl-2,5-dimethylpiperazin-1-yl)-6-isopropyl-4H-pyrrolo[3,2-d]thiazole], for which the IC50 in assay [1] was 4.29 nM; in assay [2], 0.49 nM; in assay [3], 6310 nM.

Consider `COc1cc(-c2[nH]c3sc(C4CCC(NC5(C#N)CC5)CC4)nc3c2C(C)C)cn2ncnc12` (stereo not drawn) [Example 107, 1-((4-(6-isopropyl-5-(8-methoxy-[1,2,4]triazolo[1,5-a]pyridin-6-yl)-4H-pyrrolo[3,2-d]thiazol-2-yl)cyclohexyl)amino)cyclopropane-1-carbonitrile], for which the half-maximal inhibitory concentration (IC50) was 3.6 nM in assay [1], 190 nM in assay [2] and 15400 nM in assay [3].

For orientation: IC50 means the concentration needed to halve the response being measured.

(Values after patent US20230139171A1 (SITA Information Networking Computing UK Limited, priority 2019, published 2023).)
